Assay results taken from patent US6030942A, “Peptides peptide analogs peptidomimetics and other small molecules useful for inhibiting the activity of ribonucleotide reductase” (The Trustees of the University of Pennsylvania, priority 1998, dated 2000).
“Also recorded” adds a separate entry of the source. Read-outs that look alike come from different tables or passages of the source. Ends that are not written are not given here.

Experiments:
[1] = molecular target: T1, mammalian ribonucleotide reductase (Bos taurus, UniProt Q32LP1); assay: Peptide inhibition of mammalian ribonucleotide reductase activity; format: biochemical; details: for % RI (relative inhibitory potency, (IC50 AcFTLDADF)/(IC50 peptide analog)): mean and average deviation of 2-3 determinations, others single
T1 sequence (Q32LP1 1-791): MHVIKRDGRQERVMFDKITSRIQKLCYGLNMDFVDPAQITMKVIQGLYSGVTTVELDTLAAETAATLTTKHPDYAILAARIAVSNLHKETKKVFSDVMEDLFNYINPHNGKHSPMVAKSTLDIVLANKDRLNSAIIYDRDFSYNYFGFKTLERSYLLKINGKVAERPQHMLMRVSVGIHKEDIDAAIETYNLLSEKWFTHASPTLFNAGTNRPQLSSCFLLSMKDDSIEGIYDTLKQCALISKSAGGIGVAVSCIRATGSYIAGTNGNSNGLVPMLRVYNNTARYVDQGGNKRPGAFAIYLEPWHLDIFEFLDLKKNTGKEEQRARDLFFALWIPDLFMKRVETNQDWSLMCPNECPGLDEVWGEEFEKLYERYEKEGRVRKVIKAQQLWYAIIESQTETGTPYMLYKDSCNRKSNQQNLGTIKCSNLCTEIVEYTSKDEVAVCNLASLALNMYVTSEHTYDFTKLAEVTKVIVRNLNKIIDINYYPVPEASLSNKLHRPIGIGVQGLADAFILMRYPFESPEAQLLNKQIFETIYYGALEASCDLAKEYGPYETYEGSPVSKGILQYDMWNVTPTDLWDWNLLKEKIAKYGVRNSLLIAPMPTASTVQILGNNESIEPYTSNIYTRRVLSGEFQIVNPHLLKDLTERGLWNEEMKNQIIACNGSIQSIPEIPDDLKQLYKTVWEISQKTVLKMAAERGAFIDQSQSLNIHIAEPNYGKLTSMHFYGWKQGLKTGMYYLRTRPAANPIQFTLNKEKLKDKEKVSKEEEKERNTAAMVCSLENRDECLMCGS
From the text: All three methods yielded acceptable results, with the following limitations. Method 1 is useful for the assay of CDP to dCDP and ADP to dADP conversions, but is not useful for the assay of GDP reduction. It is also sensitive to large changes in the nucleotide composition of the assay medium. […] Method 2 is the easiest to perform on purified enzymes, and can be used with all four NDPs as substrates, but is difficult to use with crude enzyme, largely because contaminating phosphatase activities can skew results. Method 3 is usable with all four NDPs, but is also somewhat sensitive to large changes in the nucleotide composition of the assay medium and requires column separation at 4° C.

mouse R1 = molecular target: T2, mouse R1 (Mus musculus, UniProt P07742); details: cited from earlier work
T2 construct: made in house; host or cells: R1: Hi5 or Sf9 insect cells (baculovirus); R2: E. coli
T2 sequence (P07742 1-792): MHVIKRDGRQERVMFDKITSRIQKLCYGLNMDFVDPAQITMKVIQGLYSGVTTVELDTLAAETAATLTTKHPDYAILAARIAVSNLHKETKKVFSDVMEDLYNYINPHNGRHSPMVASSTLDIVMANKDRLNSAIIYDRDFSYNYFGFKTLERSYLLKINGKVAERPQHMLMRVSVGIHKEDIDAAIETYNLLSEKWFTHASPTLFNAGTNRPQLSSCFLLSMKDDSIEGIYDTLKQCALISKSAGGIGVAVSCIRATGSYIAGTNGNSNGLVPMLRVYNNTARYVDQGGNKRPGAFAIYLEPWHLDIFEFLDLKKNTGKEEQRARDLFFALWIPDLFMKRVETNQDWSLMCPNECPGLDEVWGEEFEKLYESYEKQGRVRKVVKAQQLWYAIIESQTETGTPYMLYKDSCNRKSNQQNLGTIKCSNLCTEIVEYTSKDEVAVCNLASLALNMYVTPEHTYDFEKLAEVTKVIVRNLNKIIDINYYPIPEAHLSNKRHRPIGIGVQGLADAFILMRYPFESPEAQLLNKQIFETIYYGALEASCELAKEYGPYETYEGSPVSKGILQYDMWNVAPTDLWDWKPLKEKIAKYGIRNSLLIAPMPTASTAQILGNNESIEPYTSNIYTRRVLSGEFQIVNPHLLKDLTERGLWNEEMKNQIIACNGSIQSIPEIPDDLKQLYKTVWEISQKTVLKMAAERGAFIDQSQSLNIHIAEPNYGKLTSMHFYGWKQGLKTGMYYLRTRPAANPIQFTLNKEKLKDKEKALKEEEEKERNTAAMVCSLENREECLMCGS

[2] = molecular target: S. cerevisiae ribonucleotide reductase (Saccharomyces cerevisiae, UniProt P21524); assay: Peptide inhibition of S. cerevisiae ribonucleotide reductase activity; format: biochemical; details: Table 9; read-out: IC50, Yeast RR
E. coli RR = E. coli RR (Escherichia coli, UniProt P00452); details: cited from earlier work
RR [3] = molecular target: T3, RR (Mus musculus, UniProt P07742); assay: Biological Evaluation of Compound (8): RR activity; format: biochemical
T3 sequence (P07742 1-792): T2 sequence (P07742 1-792)
From the text: (§1) Standard assays of RR activity used in the studies presented herein involve the conversion of [^3 H]-ribonucleoside diphosphate (NDP) to [^3 H]-deoxyribonucleoside diphosphate (dNDP), using dithiothreitol as the external reductant. Three methods were examined: Method 1 (Steeper et al., 1970, Anal. Biochem. 34:123-130), involving the conversion of diphosphates to nucleosides by enzymatic digestion, followed by the separation of deoxynucleoside from nucleoside on Dowex-1-borate columns; Method 2 (Moore et al., 1974, Biochemistry 13:2904-2907), involving the direct separation of dNDP from NDP on aminophenylboronate columns; Method 3 (Sato et al., 1983, Anal. Biochem. 135:431-435) involving the conversion of diphosphates to nucleosides by enzymatic digestion, followed by the separation of deoxynucleoside from nucleoside on polyethyleneimine-cellulose columns.
All three methods yielded acceptable results, with the following limitations. Method 1 is useful for the assay of CDP to dCDP and ADP to dADP conversions, but is not useful for the assay of GDP reduction. It is also sensitive to large changes in the nucleotide composition of the assay medium. Thus, it is quite useful for standard assays (purifications, tests of peptide inhibition), but difficult to apply when concentrations and substrate are widely varied. […]

RR [4] = molecular target: T3, RR; assay: Inhibition of RR by Compound 23; format: biochemical
From the text: as §1
All three methods yielded acceptable results, with the following limitations. Method 1 is useful for the assay of CDP to dCDP and ADP to dADP conversions, but is not useful for the assay of GDP reduction. It is also sensitive to large changes in the nucleotide composition of the assay medium. Thus, it is quite useful for standard assays (purifications, tests of peptide inhibition), but difficult to apply when concentrations and substrate are widely varied. Method 2 is the easiest to perform on purified enzymes, and can be used with all four NDPs as substrates, but is difficult to use with crude enzyme, largely because contaminating phosphatase activities can skew results. Method 3 is usable with all four NDPs, but is also somewhat sensitive to large changes in the nucleotide composition of the assay medium and requires column separation at 4° C.

[5] = Table 8, Dixon plots of 4-6 concentration points, ranges are two independent determinations, read-out: IC50

E. coli RR, sequence (P00452 whole entry): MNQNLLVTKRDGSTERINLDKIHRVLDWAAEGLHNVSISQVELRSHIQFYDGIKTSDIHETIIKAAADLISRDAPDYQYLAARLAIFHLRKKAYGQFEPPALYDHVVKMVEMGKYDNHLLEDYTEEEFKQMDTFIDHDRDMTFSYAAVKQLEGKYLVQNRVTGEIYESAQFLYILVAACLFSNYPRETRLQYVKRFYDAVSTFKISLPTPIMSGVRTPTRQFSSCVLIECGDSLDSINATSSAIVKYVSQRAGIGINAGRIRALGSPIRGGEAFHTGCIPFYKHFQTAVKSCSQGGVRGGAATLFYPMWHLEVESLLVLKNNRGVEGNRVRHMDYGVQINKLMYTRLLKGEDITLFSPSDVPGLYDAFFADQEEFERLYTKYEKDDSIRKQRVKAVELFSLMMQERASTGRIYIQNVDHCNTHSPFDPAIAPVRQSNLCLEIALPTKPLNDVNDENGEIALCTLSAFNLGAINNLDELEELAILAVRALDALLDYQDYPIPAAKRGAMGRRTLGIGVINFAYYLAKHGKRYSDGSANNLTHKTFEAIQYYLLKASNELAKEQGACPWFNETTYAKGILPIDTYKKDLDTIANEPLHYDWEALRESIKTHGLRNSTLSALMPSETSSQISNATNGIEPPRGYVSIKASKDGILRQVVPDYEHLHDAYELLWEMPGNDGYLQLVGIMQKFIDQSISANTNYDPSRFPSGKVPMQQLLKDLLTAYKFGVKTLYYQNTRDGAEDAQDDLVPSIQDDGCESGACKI
S. cerevisiae ribonucleotide reductase, sequence (P21524 whole entry): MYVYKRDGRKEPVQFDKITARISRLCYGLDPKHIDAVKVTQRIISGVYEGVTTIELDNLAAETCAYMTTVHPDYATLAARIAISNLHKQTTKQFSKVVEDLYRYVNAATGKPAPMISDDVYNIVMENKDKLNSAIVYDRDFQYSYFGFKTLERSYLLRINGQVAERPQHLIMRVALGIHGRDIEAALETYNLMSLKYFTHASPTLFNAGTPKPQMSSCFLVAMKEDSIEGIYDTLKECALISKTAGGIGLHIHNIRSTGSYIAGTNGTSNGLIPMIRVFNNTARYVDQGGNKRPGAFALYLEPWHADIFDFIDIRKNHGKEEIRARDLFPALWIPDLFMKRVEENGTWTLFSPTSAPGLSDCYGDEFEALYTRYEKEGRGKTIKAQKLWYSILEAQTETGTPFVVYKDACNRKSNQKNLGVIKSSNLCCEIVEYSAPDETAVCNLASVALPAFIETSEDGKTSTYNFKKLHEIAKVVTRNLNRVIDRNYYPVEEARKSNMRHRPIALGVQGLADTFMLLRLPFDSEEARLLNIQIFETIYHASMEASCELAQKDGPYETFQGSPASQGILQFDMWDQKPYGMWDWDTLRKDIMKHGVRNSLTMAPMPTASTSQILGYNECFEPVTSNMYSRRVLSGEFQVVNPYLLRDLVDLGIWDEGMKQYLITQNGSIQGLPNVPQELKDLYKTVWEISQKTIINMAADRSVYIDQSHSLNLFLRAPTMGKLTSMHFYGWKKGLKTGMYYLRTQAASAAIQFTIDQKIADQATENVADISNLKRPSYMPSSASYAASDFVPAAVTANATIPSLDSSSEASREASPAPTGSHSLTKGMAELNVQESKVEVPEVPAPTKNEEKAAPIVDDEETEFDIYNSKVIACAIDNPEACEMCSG

Compound: Ac-LDADF [Ac-LDADF]
- IC50 [1, 5]: > 400 µM

Compound: Ac-FTVDADF [Ac-FTVDADF]
- % RI (relative inhibitory potency, (IC50 AcFTLDADF)/(IC50 peptide analog)) ([1]; Table 8): 35%

Compound: FA-DAP-C(N)FTLDADF: folate-peptide conjugate: γ-1,5-diaminopentane folate condensate coupled to thiol of NCFTLDADF via sulfo-MBS (not fully specified (residue 2))
- RR inhibition compared with AcFTLDADF [1]: comparable to AcFTLDADF

Compound: Ac-FTFNEDF [AcFTFNEDF]
- IC50 ([1]; Table 9, read-out: IC50, Mammalian RR): 100 µM

Compound: FTLDADF [FTLDADF, Phe-Thr-Leu-Asp-Ala-Asp-Phe]
- IC50 [1, 5]: > 400 µM

Compound: Ac-FTLDLDF [Ac-FTLDLDF]
- % RI (relative inhibitory potency, (IC50 AcFTLDADF)/(IC50 peptide analog)) ([1]; Table 8): 35%

Compound: Ac-FTLNADF [Ac-FTLNADF, Acetyl-Phe-Thr-Leu-Asn-Ala-Asp-Phe]
- IC50 [1, 5]: 25 to 29 µM

Compound: Ac-YTLDADF [Ac-YTLDADF]
- Fold lower affinity for mR1 than AcFTLDADF (mouse R1): 15 fold
- Fold decrease in RI relative to N-AcFTLDADF ([1]; Table 8): five to ten
- % RI (relative inhibitory potency, (IC50 AcFTLDADF)/(IC50 peptide analog)) ([1]; Table 8): 7%

Compound: Ac-FSLDADF [Ac-FSLDADF, Acetyl-Phe-Ser-Leu-Asp-Ala-Asp-Phe]
- IC50 ([1]; Table 8, Dixon plots of 4-6 concentration points, ranges are two independent determinations): 40 to 42 µM

Compound: Ac-TFNEDF [AcTFNEDF]
- IC50 [2]: 600 µM

Compound: Ac-FTLDADF [Ac-FTLDADF, Acetyl-Phe-Thr-Leu-Asp-Ala-Asp-Phe]
- IC50 (E. coli RR; E. coli R1 protein / RR): > 1000 µM
- Inhibition of E. coli RR (E. coli RR): at best a very poor inhibitor of eRR; also recorded: failure to significantly inhibit E. coli RR up to concentrations of 1 mM
- IC50 [1, 5]: 8 to 20 µM
- RR Activity (RR [3]; compound at 10 μM): 0.39 ± 0.07
- RR Activity (RR [3]; compound at 66 μM): 0.12

Compound: Ac-FTLDANF [Ac-FTLDANF]
- Fold decrease in RI relative to N-AcFTLDADF ([1]; Table 8): three to four
- % RI (relative inhibitory potency, (IC50 AcFTLDADF)/(IC50 peptide analog)) ([1]; Table 8): 23 ± 1.0%

Compound: CC(=O)N[C@@H](Cc1ccccc1)C(=O)NC[C@@H]1O[C@@H]([C@@H](C)C(=O)N[C@@H](CC(=O)O)C(=O)N[C@@H](Cc2ccccc2)C(=O)O)[C@@H](OCC(=O)O)C[C@H]1OCC(C)C [Compound 23]
- Residual Relative Activity (RR [4]; 30 μM Compound 23): 86 ± 8 percentage
- Residual Relative Activity (RR [4]; 100 μM Compound 23): 73 ± 6 percentage
- Residual Relative Activity (RR [4]; 300 μM Compound 23): 64 ± 6 percentage
- Residual Relative Activity (RR [4]; 500 μM Compound 23): 48 ± 4 percentage
- Residual Relative Activity (RR [4]; 1000 μM Compound 23): 32 ± 6 percentage
- Fold decrease in RI relative to N-AcFTLDADF ([1]; Table 8): three to four

Compound: Acetyl-(p-azido-Phe)-Thr-Leu-Asp-Ala-Asp-Phe [Ac-F(4'-N3)TLDADF]
- Fold decrease in RI relative to N-AcFTLDADF ([1]; Table 8): five to ten
- % RI (relative inhibitory potency, (IC50 AcFTLDADF)/(IC50 peptide analog)) ([1]; Table 8): 10%
